The values that follow come from ChEMBL document CHEMBL1201862, “PubChem BioAssay data set” (2004).

Activity calls are given as the source filed them. Some results are limits rather than exact numbers.

The target of assay [1] is Dual specificity protein phosphatase 3 (Homo sapiens, UniProt P51452). The experiment in a line: SAR VHR1 Fluorescent Assay for In Vitro dose response studies Set 3. [Related pubchem assays (depositor defined):AID1654, AID1661, AID1878]. Type of assay: functional.
Assay [2] has as its system Streptococcus. Put plainly: GAS UMAA2166 growth inhibition – luminescence, BacTiterGlo, counter-screen for streptokinase expression inhibitor project, dose response (AID 1915).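 Note: potency for reduction of bacterial viability or growth.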 The format is functional, organism-based. (A counterscreen serves to expose hits that act by an unwanted route or on another target.)
Assay [3] addresses T1, Streptokinase A (Streptococcus pyogenes serotype M1, UniProt P10520).
T1 sequence (P10520 whole entry): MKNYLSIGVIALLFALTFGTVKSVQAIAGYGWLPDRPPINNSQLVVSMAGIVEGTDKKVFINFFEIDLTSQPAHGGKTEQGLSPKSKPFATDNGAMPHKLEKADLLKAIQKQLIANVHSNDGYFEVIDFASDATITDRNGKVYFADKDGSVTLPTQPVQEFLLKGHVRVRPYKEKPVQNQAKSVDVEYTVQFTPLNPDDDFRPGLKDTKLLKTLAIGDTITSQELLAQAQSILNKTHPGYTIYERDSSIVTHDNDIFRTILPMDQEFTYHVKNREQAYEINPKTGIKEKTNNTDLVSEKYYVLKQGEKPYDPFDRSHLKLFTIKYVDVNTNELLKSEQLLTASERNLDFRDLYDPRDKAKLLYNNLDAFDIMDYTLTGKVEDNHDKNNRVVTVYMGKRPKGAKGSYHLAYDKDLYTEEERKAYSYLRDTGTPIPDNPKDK
Put plainly: viability-normalized secreted streptokinase activity reduction – plasminogen activation absorbance, OD405, dose response (AID 1914).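 Note: secreted streptokinase activity via plasminogen activation per viability signal from cell pellet.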 The format is functional, Streptococcus pyogenes M1 GAS.

Assay [4] in a line: Trypanosoma cruzi growth suppression in host cells – NIH3T3 host cells, beta-gal luminescence, confirmation (AID 2044).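 Note: intracellular parasites grown in NIH/3T3 mouse fibroblasts as host cells; luminescent beta-galactosidase reporter signal from transgenic T. cruzi replicating inside host cells; inhibitors lower the luminescence signal.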 The format is functional, cell-based.
Assay [5] in a line: Luminescence Cell-Based Dose Retest to Confirm Inhibitors of Cancer Stem Cells. [Related pubchem assays (depositor defined):AID2717, AID2721]. Type of assay: functional. The settings on record: Homo sapiens.
Assay [6] deals with A-375. The experiment in a line: proliferation inhibition in MITF-low A375 cells – cell-based, cherry-pick samples, set 2, counter-screen for MITF modulator project, dose response (AID 540335). The conditions noted are these: Homo sapiens. The format is functional.
The target of assay [7] is T2, Microphthalmia-associated transcription factor (Homo sapiens, UniProt O75030).
T2 sequence (O75030 whole entry): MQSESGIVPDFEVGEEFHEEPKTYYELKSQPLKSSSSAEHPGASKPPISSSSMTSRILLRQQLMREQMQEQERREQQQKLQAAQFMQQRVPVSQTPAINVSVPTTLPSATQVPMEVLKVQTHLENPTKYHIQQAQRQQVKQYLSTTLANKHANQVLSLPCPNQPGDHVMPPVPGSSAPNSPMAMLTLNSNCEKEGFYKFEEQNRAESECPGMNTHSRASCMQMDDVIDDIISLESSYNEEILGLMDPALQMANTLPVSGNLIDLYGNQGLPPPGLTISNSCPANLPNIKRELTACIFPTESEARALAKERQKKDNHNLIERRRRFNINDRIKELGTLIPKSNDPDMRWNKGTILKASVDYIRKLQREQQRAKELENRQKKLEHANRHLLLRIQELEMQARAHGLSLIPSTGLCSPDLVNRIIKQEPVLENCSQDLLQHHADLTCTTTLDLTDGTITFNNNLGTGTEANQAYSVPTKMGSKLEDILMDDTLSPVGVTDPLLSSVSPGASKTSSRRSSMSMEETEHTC
The experiment in a line: reducers of TRPM1 reporter luminescence, concentration series – cell-based, SK-MEL-5, cherry-picked, set 3, MITF inhibitor project, dose response (AID 493073).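 Note: SK-MEL-5 melanoma cells with luciferase driven by the MITF target TRPM1 promoter.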 Type of assay: functional.

Assay [8] deals with A-375. The experiment in a line: MITF: Counter assay: A375 proliferation Measured in Cell-Based System Using Plate Reader - 2084-03_Inhibitor_Dose_DryPowder_Activity. [Related pubchem assays (depositor defined):AID488944]. Type of assay: functional. The conditions noted are these: Homo sapiens.
Assay [9] in a line: NIH3T3 cell viability loss – ATP luminescence, mouse fibroblasts, counter-screen, dose response (AID 2010).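 Note: cells exposed to compound for about 90 hours before reading.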 Type of assay: functional, cell-based.
For assay [10], the system named is Streptococcus sp. 'group A'. Put plainly: Streptococcus pyogenes SK(-)GAS viability under kanamycin – luminescence, BacTiterGlo, confirmation, counter-screen for streptokinase expression inhibitor project, dose response (AID 1900). The format is functional, organism-based.
Assay [11] addresses T3, Hexokinase HKDC1 (Homo sapiens, UniProt Q2TB90).
T3 sequence (Q2TB90 whole entry): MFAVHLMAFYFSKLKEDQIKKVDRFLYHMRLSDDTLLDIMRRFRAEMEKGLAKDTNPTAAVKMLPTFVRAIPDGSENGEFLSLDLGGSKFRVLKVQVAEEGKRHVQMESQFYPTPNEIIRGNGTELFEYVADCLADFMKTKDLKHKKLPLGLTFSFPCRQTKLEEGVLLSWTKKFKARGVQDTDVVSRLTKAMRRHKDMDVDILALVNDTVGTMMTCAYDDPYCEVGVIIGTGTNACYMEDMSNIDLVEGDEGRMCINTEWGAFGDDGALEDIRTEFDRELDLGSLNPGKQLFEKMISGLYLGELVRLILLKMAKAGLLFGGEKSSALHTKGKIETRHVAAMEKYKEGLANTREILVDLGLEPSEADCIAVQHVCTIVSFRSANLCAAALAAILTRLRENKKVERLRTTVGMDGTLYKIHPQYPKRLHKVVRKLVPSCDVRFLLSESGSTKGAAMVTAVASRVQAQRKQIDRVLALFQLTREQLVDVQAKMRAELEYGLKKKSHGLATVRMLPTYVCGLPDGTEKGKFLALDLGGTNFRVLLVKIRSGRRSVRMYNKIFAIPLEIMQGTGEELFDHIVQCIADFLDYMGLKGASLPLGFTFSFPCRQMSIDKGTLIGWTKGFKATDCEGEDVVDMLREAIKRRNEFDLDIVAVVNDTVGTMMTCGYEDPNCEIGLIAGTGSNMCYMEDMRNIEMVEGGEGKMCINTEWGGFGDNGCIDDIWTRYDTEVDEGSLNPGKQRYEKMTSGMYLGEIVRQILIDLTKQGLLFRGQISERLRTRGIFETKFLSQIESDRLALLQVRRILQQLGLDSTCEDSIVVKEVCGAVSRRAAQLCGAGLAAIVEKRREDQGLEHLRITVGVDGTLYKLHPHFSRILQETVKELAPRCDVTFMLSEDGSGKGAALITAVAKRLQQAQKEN
The experiment in a line: analog inhibition of human HKDC1 activity – biochemical, set 2, SAR follow-up (AID 588355). The format is functional.

In assay [12] the target is T4, Hexokinase-1 (Homo sapiens, UniProt P19367).
T4 sequence (P19367 whole entry): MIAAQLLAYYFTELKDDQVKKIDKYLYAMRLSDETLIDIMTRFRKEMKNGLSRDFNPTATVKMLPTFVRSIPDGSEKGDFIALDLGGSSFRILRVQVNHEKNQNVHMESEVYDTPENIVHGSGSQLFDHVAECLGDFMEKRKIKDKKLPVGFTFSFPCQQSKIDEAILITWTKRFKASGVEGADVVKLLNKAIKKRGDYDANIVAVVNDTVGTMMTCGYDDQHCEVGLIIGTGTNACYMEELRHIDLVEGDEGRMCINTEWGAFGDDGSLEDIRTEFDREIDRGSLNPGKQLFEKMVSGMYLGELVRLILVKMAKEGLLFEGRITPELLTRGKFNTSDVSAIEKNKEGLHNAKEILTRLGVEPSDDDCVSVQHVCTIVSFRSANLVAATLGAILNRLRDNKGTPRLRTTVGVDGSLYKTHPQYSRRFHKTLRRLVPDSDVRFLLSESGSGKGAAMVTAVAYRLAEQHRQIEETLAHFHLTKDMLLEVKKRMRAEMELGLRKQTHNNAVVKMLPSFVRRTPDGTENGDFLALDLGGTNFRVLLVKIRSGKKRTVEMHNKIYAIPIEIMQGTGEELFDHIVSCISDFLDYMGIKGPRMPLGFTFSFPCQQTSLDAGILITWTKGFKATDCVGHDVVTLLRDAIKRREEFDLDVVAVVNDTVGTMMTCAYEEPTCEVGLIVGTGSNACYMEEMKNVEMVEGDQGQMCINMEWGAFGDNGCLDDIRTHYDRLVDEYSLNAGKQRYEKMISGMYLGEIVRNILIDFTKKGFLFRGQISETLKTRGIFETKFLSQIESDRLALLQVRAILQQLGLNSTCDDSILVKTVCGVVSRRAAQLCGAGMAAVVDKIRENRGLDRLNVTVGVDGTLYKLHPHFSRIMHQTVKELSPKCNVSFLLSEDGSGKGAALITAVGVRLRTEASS
Put plainly: hexokinase 1 activity inhibitors, potency – biochemical, set 2, resazurin fluorescence coupled readout, selectivity assay for HKDC1 inhibitor project, SAR follow-up (AID 588356). The format is functional. (In general: Alamar Blue is a resazurin reagent that responds to reducing activity.)

In assay [13] the target is Photoreceptor-specific nuclear receptor (Homo sapiens, UniProt Q9Y5X4). The experiment in a line: ligands suppressing NR2E3 nuclear receptor activity – biochemical, TR-FRET, dose response (AID 463256). Type of assay: functional.
In assay [14] the target is T5, Small ubiquitin-related modifier 1 (Homo sapiens, UniProt P63165). The experiment in a line: SUMO1 protein-protein binding blockers, potency – biochemical, FRET, dose response (AID 624383). The conditions noted are these: read-out: IC50_Mean. The format is functional.
Assay [15] deals with Beta-adrenergic receptor kinase 1 (Homo sapiens, UniProt P25098). Put plainly: blockers of aptamer binding to GRK2 – biochemical, flow cytometry beads, FAM-aptamer, powder set 1, dose response (AID 588720). In general terms: In flow cytometry, cells or beads pass a laser one at a time.
Assay [16] deals with T5, Small ubiquitin-related modifier 1. Put plainly: SUMO1 protein interaction blockers, potency – biochemical, fluorescence polarization, uHTS hits, dose response (AID 624382). The settings on record: read-out: IC50_Mean. Type of assay: functional.
The target in assay [17] is Peroxisome proliferator-activated receptor gamma/Nuclear receptor corepressor 2 (Homo sapiens, UniProt P37231+Q9Y618). Put plainly: Counterscreen for NR2E3 inverse agonists: TR-FRET-based biochemical high throughput dose response assay to identify inverse agonists of the interaction between peroxisome proliferator-activated receptor gamma (PPARg) and nuclear receptor co-repressor 2 (NCOR2). Type of assay: functional.

For assay [18], the system named is HEK293. The experiment in a line: SAR Analysis of small molecule inhibitors of B-cell specific antigen receptor-induced NF-kB activation in a HEK-293T cell line using a luminescence assay - Set 2. [Related pubchem assays (depositor defined):AID435022, AID435025, AID489021]. The format is functional, cell-based. The settings on record: Homo sapiens.
The test system of assay [19] is HEK293. Put plainly: HEK293T cell viability loss, resazurin readout – resazurin fluorescence, cytotoxicity control for NF-kB activator project, SAR follow-up (AID 493251). The conditions noted are these: Homo sapiens. The format is functional, cell-based.
In assay [20] the test system is Jurkat. The experiment in a line: SAR Analysis of small molecule inhibitors of […] specific antigen receptor-induced NF-kB activation in a Jurkat cell line using a luminescence assay - Set 3. [Related pubchem assays (depositor defined):AID435022, AID435025, AID465]. The format is functional, cell-based. The settings on record: Homo sapiens.
For assay [21], the system named is HEK293. The experiment in a line: SAR Analysis of small molecule inhibitors of T-cell specific antigen receptor-induced NF-kB activation in a HEK-293T cell line using a luminescence assay - Set 2. [Related pubchem assays (depositor defined):AID435003, AID435012, AID489026]. The settings on record: Homo sapiens. Type of assay: functional, cell-based.
Assay [22] relates to Jurkat. The experiment in a line: SAR Analysis of small molecule inhibitors of T-cell specific antigen receptor-induced NF-kB activation in a Jurkat cell line using a luminescence assay - Set 2. [Related pubchem assays (depositor defined):AID435003, AID435012, AID465]. The settings on record: Homo sapiens. The format is functional, cell-based.

T5 sequence (P63165 whole entry): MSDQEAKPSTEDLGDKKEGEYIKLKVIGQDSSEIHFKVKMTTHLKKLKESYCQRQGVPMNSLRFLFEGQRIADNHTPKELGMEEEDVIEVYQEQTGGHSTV
Sequence of Photoreceptor-specific nuclear receptor (Q9Y5X4 whole entry): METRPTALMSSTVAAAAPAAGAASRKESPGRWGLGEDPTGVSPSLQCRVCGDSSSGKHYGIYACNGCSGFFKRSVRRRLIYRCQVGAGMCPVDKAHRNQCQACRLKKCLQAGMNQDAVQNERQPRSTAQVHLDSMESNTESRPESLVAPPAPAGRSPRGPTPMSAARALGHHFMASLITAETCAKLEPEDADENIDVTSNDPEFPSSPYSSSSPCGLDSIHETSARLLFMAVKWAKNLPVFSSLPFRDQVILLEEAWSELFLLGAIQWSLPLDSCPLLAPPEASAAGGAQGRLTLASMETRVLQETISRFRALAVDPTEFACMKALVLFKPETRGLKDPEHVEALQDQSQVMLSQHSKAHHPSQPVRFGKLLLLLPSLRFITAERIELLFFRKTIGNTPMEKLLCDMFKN
Sequence of Dual specificity protein phosphatase 3 (P51452 whole entry): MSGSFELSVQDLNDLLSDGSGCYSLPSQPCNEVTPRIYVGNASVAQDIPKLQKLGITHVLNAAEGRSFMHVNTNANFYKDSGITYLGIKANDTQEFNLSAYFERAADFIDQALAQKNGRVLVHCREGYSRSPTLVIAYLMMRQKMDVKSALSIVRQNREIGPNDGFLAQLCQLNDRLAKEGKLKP
Sequence of Peroxisome proliferator-activated receptor gamma/Nuclear receptor corepressor 2 (P37231 whole entry): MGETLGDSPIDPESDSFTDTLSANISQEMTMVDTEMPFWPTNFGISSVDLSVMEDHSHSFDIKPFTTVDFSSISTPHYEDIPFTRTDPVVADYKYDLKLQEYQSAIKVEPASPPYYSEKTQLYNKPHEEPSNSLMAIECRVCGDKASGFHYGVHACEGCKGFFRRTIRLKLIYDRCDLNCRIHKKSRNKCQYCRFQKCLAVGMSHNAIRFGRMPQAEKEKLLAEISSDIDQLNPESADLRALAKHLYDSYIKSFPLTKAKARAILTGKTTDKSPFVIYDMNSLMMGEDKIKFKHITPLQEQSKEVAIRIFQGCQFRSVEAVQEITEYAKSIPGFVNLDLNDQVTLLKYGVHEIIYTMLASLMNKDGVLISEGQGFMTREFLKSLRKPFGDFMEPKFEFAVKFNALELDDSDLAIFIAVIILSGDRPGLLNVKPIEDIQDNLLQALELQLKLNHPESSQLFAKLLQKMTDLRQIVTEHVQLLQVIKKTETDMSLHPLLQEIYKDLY
Sequence of Peroxisome proliferator-activated receptor gamma/Nuclear receptor corepressor 2 (Q9Y618 whole entry): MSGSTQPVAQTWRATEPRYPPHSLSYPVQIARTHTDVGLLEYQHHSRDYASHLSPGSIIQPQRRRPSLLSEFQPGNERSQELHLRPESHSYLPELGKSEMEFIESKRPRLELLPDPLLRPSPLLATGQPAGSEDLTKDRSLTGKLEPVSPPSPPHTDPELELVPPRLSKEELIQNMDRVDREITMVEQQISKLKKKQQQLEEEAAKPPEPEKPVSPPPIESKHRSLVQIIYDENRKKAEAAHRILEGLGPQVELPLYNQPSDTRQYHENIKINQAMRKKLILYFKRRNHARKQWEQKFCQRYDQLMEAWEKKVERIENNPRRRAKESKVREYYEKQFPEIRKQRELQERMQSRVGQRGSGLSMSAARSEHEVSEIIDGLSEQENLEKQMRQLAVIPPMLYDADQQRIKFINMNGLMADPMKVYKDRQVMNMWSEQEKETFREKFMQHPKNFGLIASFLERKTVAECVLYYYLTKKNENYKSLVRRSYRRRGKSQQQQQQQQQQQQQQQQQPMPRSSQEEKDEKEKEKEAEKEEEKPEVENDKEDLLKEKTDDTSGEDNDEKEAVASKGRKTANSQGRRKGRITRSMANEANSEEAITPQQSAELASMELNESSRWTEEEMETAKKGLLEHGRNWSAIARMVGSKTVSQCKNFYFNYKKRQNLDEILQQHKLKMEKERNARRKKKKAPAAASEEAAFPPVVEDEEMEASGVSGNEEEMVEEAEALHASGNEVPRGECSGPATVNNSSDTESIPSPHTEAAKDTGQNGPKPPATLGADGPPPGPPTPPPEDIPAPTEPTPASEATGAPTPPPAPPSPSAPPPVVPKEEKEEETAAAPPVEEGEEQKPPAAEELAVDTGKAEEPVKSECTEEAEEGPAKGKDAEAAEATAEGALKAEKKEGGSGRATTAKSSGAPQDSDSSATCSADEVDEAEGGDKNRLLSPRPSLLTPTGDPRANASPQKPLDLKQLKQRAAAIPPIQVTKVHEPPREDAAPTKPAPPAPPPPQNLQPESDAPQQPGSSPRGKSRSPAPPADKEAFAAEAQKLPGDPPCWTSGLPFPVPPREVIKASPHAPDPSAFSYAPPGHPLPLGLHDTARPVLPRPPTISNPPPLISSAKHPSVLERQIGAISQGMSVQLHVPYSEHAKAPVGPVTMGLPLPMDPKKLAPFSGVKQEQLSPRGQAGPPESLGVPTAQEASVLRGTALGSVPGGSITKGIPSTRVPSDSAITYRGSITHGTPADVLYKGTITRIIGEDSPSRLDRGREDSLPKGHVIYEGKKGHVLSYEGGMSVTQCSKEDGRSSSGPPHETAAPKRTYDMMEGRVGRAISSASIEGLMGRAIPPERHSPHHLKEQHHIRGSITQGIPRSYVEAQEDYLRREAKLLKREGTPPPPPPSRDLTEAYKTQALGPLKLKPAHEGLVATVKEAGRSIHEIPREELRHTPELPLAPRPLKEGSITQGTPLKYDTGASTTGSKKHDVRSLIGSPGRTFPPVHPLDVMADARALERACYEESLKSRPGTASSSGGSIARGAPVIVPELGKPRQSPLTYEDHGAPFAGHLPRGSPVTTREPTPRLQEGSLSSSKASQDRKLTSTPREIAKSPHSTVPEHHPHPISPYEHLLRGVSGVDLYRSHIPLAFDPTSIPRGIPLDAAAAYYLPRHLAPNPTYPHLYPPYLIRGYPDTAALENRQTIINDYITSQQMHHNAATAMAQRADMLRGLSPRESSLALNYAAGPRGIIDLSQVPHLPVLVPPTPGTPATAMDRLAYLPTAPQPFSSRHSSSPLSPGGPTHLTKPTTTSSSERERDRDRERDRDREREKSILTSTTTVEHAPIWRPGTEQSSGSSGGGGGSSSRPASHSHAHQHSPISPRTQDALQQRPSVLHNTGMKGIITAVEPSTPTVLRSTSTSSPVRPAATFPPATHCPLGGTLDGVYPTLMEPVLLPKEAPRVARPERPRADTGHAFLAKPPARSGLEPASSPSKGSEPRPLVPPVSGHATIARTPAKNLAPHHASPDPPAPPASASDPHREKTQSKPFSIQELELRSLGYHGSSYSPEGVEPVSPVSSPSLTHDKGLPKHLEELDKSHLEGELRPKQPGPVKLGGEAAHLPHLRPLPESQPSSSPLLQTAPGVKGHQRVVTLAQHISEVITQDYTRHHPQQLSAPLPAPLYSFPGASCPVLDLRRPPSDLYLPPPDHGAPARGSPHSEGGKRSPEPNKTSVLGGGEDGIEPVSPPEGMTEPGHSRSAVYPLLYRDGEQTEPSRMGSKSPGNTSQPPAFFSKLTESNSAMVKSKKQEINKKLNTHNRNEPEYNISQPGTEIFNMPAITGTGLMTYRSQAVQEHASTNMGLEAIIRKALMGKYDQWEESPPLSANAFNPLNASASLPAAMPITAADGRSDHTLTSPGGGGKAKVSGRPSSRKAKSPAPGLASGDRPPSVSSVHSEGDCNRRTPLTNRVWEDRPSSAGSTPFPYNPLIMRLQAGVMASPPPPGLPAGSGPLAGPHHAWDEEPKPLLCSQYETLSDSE
Sequence of Beta-adrenergic receptor kinase 1 (P25098 whole entry): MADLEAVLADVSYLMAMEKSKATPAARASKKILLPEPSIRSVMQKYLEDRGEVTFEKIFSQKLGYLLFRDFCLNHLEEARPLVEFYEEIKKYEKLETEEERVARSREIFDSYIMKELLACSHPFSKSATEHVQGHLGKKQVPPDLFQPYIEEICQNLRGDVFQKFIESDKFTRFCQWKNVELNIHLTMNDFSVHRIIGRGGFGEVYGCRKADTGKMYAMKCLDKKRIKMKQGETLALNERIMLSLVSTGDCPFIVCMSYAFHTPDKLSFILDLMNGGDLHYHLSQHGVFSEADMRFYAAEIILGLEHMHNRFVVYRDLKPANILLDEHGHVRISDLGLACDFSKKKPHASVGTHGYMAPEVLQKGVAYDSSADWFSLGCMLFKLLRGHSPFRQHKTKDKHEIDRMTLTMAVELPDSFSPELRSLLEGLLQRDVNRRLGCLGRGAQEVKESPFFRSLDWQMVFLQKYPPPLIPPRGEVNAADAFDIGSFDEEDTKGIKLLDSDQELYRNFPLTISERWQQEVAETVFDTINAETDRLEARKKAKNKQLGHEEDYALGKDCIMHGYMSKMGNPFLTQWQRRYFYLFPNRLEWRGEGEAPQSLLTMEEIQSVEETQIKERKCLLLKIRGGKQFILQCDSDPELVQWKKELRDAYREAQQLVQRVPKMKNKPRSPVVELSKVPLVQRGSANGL

Regarding `COc1ccc(C(=O)Nc2nc3c(OC)ccc(C)c3s2)cc1`, in assay [1], the IC50 was 48.7 µM (active).

One may read the EC50 as the concentration giving half of the maximal effect. As usually defined, the AC50 is the concentration giving half of the maximal activity seen. For `O=C(Nc1cccc(Cl)c1)Nc1cc(S(=O)(=O)N2CCCCC2)ccc1Cl`, the EC50 in assay [2] was 26.6 µM (active); in assay [3] it was 4.59 µM (active); in assay [4] it was 1.91 µM (active); in assay [9], > 60 µM (not active); in [10] it was 11.8 µM (active). The AC50 was 2.59 µM (active) in assay [5], > 11 µM (active) in [6], 12 µM (active) in assay [7] and > 11 µM (active) in [8].

Regarding `O=c1c2cc(Cl)ccc2nc(/C=C/c2cccnc2)n1Cc1ccccc1`, the IC50 in assay [11] and in assay [12] was > 80 µM (inactive) each time.

On to `CCOc1ccc(NC(=O)CCS(=O)(=O)c2ccc(Br)cc2)cc1`, for which the IC50 is 8.87 µM (active) in assay [13], 12.8 µM (active) in [14], > 66.6 µM (inactive) in assay [16] and 13.6 µM (not active) in assay [17]. Besides, the EC50 in assay [15] is 0.277 µM (inactive).

As to `CNC(=O)CCc1nc(-c2ccc(OC)cc2)no1`, the IC50 in assay [18], in assay [19] and in assay [20] was > 80 µM (inactive) throughout.

For the compound `CC(C)c1ccc(C(NC(=O)C2CCCCC2)c2cc([N+](=O)[O-])c3cccnc3c2O)cc1` (stereo not drawn), the IC50 in assay [21] was 11.6 µM (active); in [22], 76.4 µM (inactive); in assay [19], 3.96 µM (active).
